We go through one compound from US5703056A, “Non-invasive imaging of gene transfer” (priority 1995, dated 1997).

A short description of data set [1]: Calculated permeability surface area product (PS) of the cerebral capillaries. Further details: unit not given here. From the text: Passage of the nucleosides across the blood brain barrier (BBB) is an important factor to consider in the design of radiolabelled 2'-fluoro-nucleoside analogues for imaging HSV1-TK expression in the brain. […] It is known that brain capillary permeability for many compounds is related to their octanol/water partition coefficient (P) and molecular weight. [Levin, V. N. J. Med. Chem., 23: 682-4, 1980] Several authors have described a relationship between the brain capillary permeability and log P or log P·Dm, where Dm is a measure of diffusibility. […] [Dischino, D. D., Welch, M. J., Kilbourn, M. N., and Raichle, M. E., J. Nucl. Med., 24: 1030-8, 1983] […] Fenstermacher, J. D. Drug transfer across the blood brain barrier. In: Topics in Pharmaceutical Sciences. Ed.: Breimer, D. D., and Speiser, P. Amsterdam: Elsevier, pp. 143-54, 1983; Fenstermacher, J. D., and Rapoport, S. I. In: Handbook of Physiology. The Cardiovascular System. Microcirculation. Bethesda, Md.: Am. Physiol. Soc., sect. 2, Vol. IV, pt. 2, chapt. 21, p. 969-1000, 1984; Fenstermacher, J. D. In: Implications of Blood-Brain Barrier and Its Manipulation. Basic Science Aspects. Ed. by Neuwelt, E., New York: Plenum, Vol. 1, Chapt. 6, pp. 132-55, 1988]

The target in the next data set is HSV1-TK (Human alphaherpesvirus 1 strain 17, UniProt P0DTH5). In words: Single 120 minute paired accumulation of FIAU and IUdR by RG2TK+ and RG2 cells. The settings on record: Data from FIG. 6A. The format is cell-based, herpes simplex virus. The procedure: The processing of cells and incubation medium was the same as that described above. A portion of the harvested cells was also processed for acid-insoluble (10% TCA) radioactivity. Decay corrected ^123 I-radioactivity was measured in a Packard AutoGamma 5550 Spectrometer. Samples were stored for 1 week to allow for ^123 I decay (12 half lives), and recounted afterwards in the Packard B1600 TriCarb beta spectrometer to determine ^3 H- and ^14 C-radioactivity.
All radioactivity measurements were expressed as a percent of administered dose per gram of tissue or per unit volume of fluid as described above.
Data analysis. […] These two related measures are useful to evaluate the intensity of the images (e.g., high "sensitivity") and the ability to differentiate between HSV1-TK and endogenous-TK in the images (e.g., high "selectivity"). The "selectivity" measure is not interpreted as a relative sensitivity (i.e., a value of 1 indicating equal sensitivity) of the substrate to HSV1-TK vs. endogenous-TK. […] They are intended for the direct comparison of substrates only.

Chain of HSV1-TK (P0DTH5 whole entry): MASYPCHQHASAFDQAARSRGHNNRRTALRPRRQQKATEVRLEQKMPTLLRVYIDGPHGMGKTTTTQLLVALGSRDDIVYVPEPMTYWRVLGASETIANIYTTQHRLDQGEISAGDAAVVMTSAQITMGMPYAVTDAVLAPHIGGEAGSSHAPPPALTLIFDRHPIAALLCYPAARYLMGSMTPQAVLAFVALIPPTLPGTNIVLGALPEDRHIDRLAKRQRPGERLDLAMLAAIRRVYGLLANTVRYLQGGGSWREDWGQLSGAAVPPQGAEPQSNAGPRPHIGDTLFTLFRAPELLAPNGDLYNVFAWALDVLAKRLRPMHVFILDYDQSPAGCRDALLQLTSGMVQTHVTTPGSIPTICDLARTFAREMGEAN

As for `O=c1[nH]c(=O)n([C@@H]2O[C@H](CO)[C@@H](O)[C@@H]2F)cc1I` [FIAU, 2'-fluoro-5-iodo-1-β-D-arabinofuranosyl-uracil], the “PS*” value in data set [1] (calculated from measured log P and MW: log(PS)=5.2+log(P·Dm)) is given as 0.59. Further, the “PS+” value in data set [1] (calculated from published log P and MW: log(PS)=5.2+log(P·Dm)) is 0.59. Further, on HSV1-TK, the “Sensitivity* Δ(substrate/TdR)/Δ(HSV1TK mRNA/S28 RNA IOD)” value came to 0.0105.
